Article PMC8564858, “Flavonoid-based inhibitors of the Phi-class glutathione transferase from black-grass to combat multiple herbicide resistance” (Organic & Biomolecular Chemistry, 2021)

Assays:
AmGSTF1 [1] = experiment: CDNB assay: inhibition of AmGSTF1-catalysed glutathionylation of CDNB; format: biochemical, Alopecurus myosuroides; conditions: for CDNB Assay % Inhibition: three replicate measurements
AmGSTF1 [2] = experiment: Thermal shift assay; format: binding, Alopecurus myosuroides; conditions: difference in melting temperature compared to no ligand
[3] = system: HS black-grass (Rothamsted); experiment: Petri-dish seedling assay with pendimethalin; format: in vivo, Alopecurus myosuroides; conditions: 70 uM compound 55 for 24 h prior to 5 ppm pendimethalin
MHR black-grass (Peldon) = experiment: Petri-dish seedling assay with pendimethalin; format: in vivo, Alopecurus myosuroides
MHR black-grass plants = experiment: Spray assay on three-leaf stage plants with pendimethalin; format: in vivo, Alopecurus myosuroides; conditions: three-leaf stage (BBCH 13); 70 μM compound 55, 24 h prior to spray with 35 μM pendimethalin
AtGSTF8 = experiment: CDNB assay on AtGSTF8 (selectivity); format: biochemical, A. thaliana
Procedure: Having established flavonoids as AmGSTF1 ligands with the potential to reverse the MHR phenotype, the scope for optimising their activity, selectivity, and physicochemical profile using synthetic modifications was explored. Using 5,7-dihydroxyflavone (chrysin, 2) as precursor (Fig. 3a), the synthesis of flavonoid derivatives with simple A-ring modifications were undertaken. Each compound was then assessed for its binding to the protein target using both thermal shift assays and by the inhibition of enzyme activity toward CDNB (Table S4 ^‡). The 2-methylchromen-4-one derivative 12 (Table S4; ^‡ entry 11) was synthesised to assess the effect of replacement of the aryl ring at the 2-position (B-ring) with a smaller group. […] Alternative 2-substituents, including amides 16, cyclic amines 17 and (hetero)arenes 18, each introduced from the corresponding carboxylic acid 13, thioether 14 and chloride 15 using standard acylation, SNAr and Pd-catalysed cross-coupling reactions (Fig. 3b). […] However, for these compounds, the assessment of activity was difficult due to their low solubility in aqueous solutions. […] To confirm if the binding observed with these synthetic analogues was specific to AmGSTF1, as determined by the inhibition of CDNB activity, the effect of this flavonoid series on an alternative well described phi class GST from A. thaliana (AtGSTF8), was investigated. […]

[4] = Aqueous solubility (qualitative); format: physicochemical

SMILES: CCCCCCCCCCC(Oc1cc(O)cc2oc(-c3ccc(O)c(O)c3)c(O)c(=O)c12)C(=O)O (stereo not shown) [compound 55]
- Inhibitory activity toward AmGSTF1 in the CDNB assay (in words) (AmGSTF1 [1]): excellent inhibitory activity
- CDNB Assay % Inhibition (AmGSTF1 [1]; 1 µM compound): 70%
- CDNB Assay % Inhibition (AmGSTF1 [1]; 10 µM compound): 96%
- CDNB Assay % Inhibition (AmGSTF1 [1]; 100 µM compound): 100%
- Thermal Shift Assay ∆Tm (AmGSTF1 [2]; 1 µM): 0.20
- Thermal Shift Assay ∆Tm (AmGSTF1 [2]; 10 µM): 2.17
- Thermal Shift Assay ∆Tm (AmGSTF1 [2]; 100 µM): 1.10
- Percentage of normal shoot 14 d after treatment [3]: 50%
- Resistance to pendimethalin in MHR seedlings (MHR black-grass (Peldon); 70 μM compound 55, 24 h prior to 5 ppm pendimethalin, compared to untreated seedlings): reduced
- Percentage of normal shoot 14 d after treatment (MHR black-grass (Peldon); Peldon-MHR, 70 uM compound 55 for 24 h prior to 5 ppm pendimethalin): 66%
- Pendimethalin resistance in established MHR plants (MHR black-grass plants): reversed pendimethalin resistance
- Selectivity toward AmGSTF1 as compared to AtGSTF8 (AtGSTF8): good selectivity
- Solubility in aqueous solutions (in words) [4]: sufficient soluble
